Experimental data as given in patent publication US6967196B1, “Sulfonamide compounds and uses thereof” (Bristol-Myers Squibb Company, priority 1999, dated 2005).
Where a name gives a salt, the structure may show the parent alone. Read-outs that look alike come from different tables or passages of the source. Values belong to the compound of their own block, whether it stands above or below them.

System: amyloid β production in transfected H4 (human neuroglioma) cells stably expressing APP constructs
Experiment: In vitro cell-based assay of inhibitors of amyloid β production (ELISA)
Settings: amyloid β in medium by ELISA, read-out: ACTIVITY (IC50, inhibition of amyloid β production)
Procedure: In Vitro Cell-Based Assay of Inhibitors of Amyloid β Production
Transfected H4 (human neuroglioma) cells stably expressing APP constructs are used to identify and assess inhibitors of Aβ production. In brief, cells lines are exposed to compounds, and the effect of each compound on amyloid β production is determined by measuring the amount of amyloid β produced using an enzyme linked immunosorbent assay (ELISA) that detects amyloid β (see, for example, Seubert et al., (1992) Nature, 359:325-327).
Transfected cells that stably express wild-type and variant forms of APP are plated in 96-well format plates at a density sufficient for the rapid detection of the secreted amyloid β (experimentally predetermined for a particular stable cell population). Cells are plated at least six hours prior to the introduction of the test compound at which time the growth medium is replaced by fresh medium containing the compound to be tested. All synthetic agents are initially screened at doses ranging from 10-100 μM. Higher dilutions of agents can be used to minimize cytotoxicity. Incubation of cells with a test compound continues for approximately 16 hours at which time aliquots of medium from each well are removed and assayed for amyloid β.
ELISA is carried out by methods known in the art (see, e.g., Haass et al., Antibodies: A Laboratory Manual, Harlow and lane, Editors, Cold Spring Harbor Press, 1988) The capture antibody is typically a mouse monoclonal (IgG1/kβ-APPa) which recognizes the carboxyl terminal epitope of amyloid β. The specificity of the capture antibody insures measurement of amyloid β without interference from other secreted APP fragments that share amino acid sequence (amyloid β 1-16) homology with amyloid β but lack the carboxy-terminal region. The detecting antibody is typically an affinity-purified rabbit polyclonal antibody that is specific for the amino terminus of amyloid β.
Results from test compounds are compared to results obtained when cells are treated with control agents. Amyloid β levels are determined by comparison to a standard curve obtained by subjecting a range of known amounts of amyloid β to the ELISA.
A compound is identified as “active” when it inhibits cellular production of amyloid β relative to levels in control samples by at least 50% at the initial tested concentration without significant cytotoxicity. Active compounds are then assayed in dose-response experiments to determine the lowest dose of compound necessary for inhibition of amyloid β production.

[1] = Homo sapiens, 16 h, transfected H4 cells stably expressing APP, approx. 16 h incubation
[2] = transfected H4 cells stably expressing APP constructs, approximately 16 hours incubation
[3] = Homo sapiens, 16 h, transfected H4 cells stably expressing APP, approximately 16 hours incubation
[4] = transfected H4 cells stably expressing APP, approximately 16 hours incubation
[5] = transfected H4 cells stably expressing APP, approx. 16 h incubation
[6] = Homo sapiens, 16 h, transfected H4 cells stably expressing APP constructs, approximately 16 hours incubation
[7] = Homo sapiens, 16 h, transfected H4 cells expressing APP, approximately 16 hours incubation
[8] = transfected H4 cells stably expressing APP, approximately 16 hours incubation, Table B

IC50 [3]: > 500 nM
Compound: O=[N+]([O-])c1ccc(SCCCOc2ccccc2CN(c2cc(F)ccc2F)S(=O)(=O)c2ccc(Cl)cc2)cc1 [Example 997, 4-chloro-N-(2,5-difluorophenyl)-N-(2-{3-[(4-nitrophenyl)sulfanyl]propoxy}benzyl)benzenesulfonamide]

IC50 [3]: > 500 nM
Compound: O=S(=O)(c1ccccc1)N(Cc1ccccc1CCCCN1CCCCC1)c1ccccc1 [Example 1005, N-phenyl-N-{2-[4-(1-piperidinyl)butyl]benzyl}benzenesulfonamide]

IC50 [3]: 100 to 500 nM
Compound: CCN(CC)C(=O)N(C)CCCOc1ccccc1CN(c1cc(F)ccc1F)S(=O)(=O)c1ccc(Cl)cc1 [Example 849, 4-chloro-N-(2-{3-[[(diethylamino)carbonyl](methyl)amino]propoxy}benzyl)-N-(2,5-difluorophenyl)benzenesulfonamide]

IC50 [3]: > 500 nM
Compound: C[C@@H](Oc1ccc(Cl)cc1N(C)S(=O)(=O)c1ccc(Cl)cc1)c1ccc(F)cc1CCCC(=O)O [Example 935, 4-[2-((1R)-1-{4-chloro-2-[[(4-chlorophenyl)sulfonyl](methyl)amino]phenoxy}ethyl)-5-fluorophenyl]butanoic acid]

IC50 [6]: ≤ 25 nM
Compound: C[C@H](COC(=O)N1CCCC1)N(c1cc(Cl)ccc1F)S(=O)(=O)c1ccc(Cl)cc1 [Example 1243, 4-Chloro-N-(2-fluoro-5-chlorophenyl)-N-[2-[[[pyrrolidin-1-yl]carbonyl]oxy]-(R)-1-methylethyl]benzenesulfonamide]

IC50 [7]: > 500 nM
Compound: CCCCCCCCCCCCCCNC(=O)[C@@H](C)N(c1cc(Cl)ccc1F)S(=O)(=O)c1ccc(Cl)cc1 [Example 1337]

IC50 [3]: > 500 nM
Compound: O=S(=O)(c1ccc(Cl)cc1)N(Cc1ccccc1OCCCN1CCCCC1)c1cc(Cl)cnc1Cl [Example 906, 4-chloro-N-(2,5-dichloro-3-pyridinyl)-N-{2-[3-(1-piperidinyl)propoxy]benzyl}benzenesulfonamide hydrochloride]

IC50 [6]: > 10000 nM
Compound: CC(C)(O)C#Cc1ccccc1CN(c1ccccc1)S(=O)(=O)c1ccc(Cl)cc1 [Example 1086, 4-chloro-N-[2-(3-hydroxy-3-methyl-1-butynyl)benzyl]-N-phenylbenzenesulfonamide]

IC50 [7]: 100 to 500 nM
Compound: CCOCCCNC(=O)[C@@H](C)N(c1cc(Cl)ccc1F)S(=O)(=O)c1ccc(Cl)cc1 [Example 1320]

IC50 [3]: > 500 nM
Compound: O=C1c2ccccc2C(=O)N1CCCOc1ccccc1CN(c1cc(F)ccc1F)S(=O)(=O)c1ccc(Cl)cc1 [Example 916, 4-chloro-N-(2,5-difluorophenyl)-N-{2-[3-(1,3-dioxo-1,3-dihydro-2H-isoindol-2-yl)propoxy]benzyl}benzenesulfonamide]

IC50 [7]: > 500 nM
Compound: C[C@H](C(=O)N[C@@H](CO)CSCc1ccccc1)N(c1cc(Cl)ccc1F)S(=O)(=O)c1ccc(Cl)cc1 [Example 1343]

The next lines start with the compound.

Compound: O=S(=O)(c1ccc(Cl)cc1)N(Cc1ccccc1Cn1ncnn1)c1cc(F)ccc1F [Example 751, 4-chloro-N-(2,5-difluorophenyl)-N-[2-(2H-tetraazol-2-ylmethyl)benzyl]benzenesulfonamide]
IC50 [1]: 100 to 500 nM

Compound: CCSCCC[C@@H](C)N(c1cc(Cl)ccc1CO)S(=O)(=O)c1ccc(Cl)cc1 [Example 1227, 4-chloro-N-[5-chloro-2-(hydroxymethyl)phenyl]-N-[1(R)-methyl-(4-ethylthio)butyl]benzenesulfonamide]
IC50 [2]: ≤ 25 nM

Compound: O=S(=O)(c1ccc(Cl)cc1)N(Cc1cc(Cl)ccc1OCCCN1CCCCC1)c1ccccc1 [Example 964, 4-chloro-N-{5-chloro-2-[3-(1-piperidinyl)propoxy]benzyl}-N-phenylbenzenesulfonamide hydrochloride]
IC50 [3]: > 500 nM

Compound: 3-(2-{[(phenylsulfonyl)anilino]methyl}phenyl)propanoic acid [Example 993]
IC50 [4]: > 500 nM

Compound: 3,5-dichloro-N-{3-[2-({[(4-chlorophenyl)sulfonyl]-2,5-difluoroanilino}methyl)phenoxy]propyl}-N-methylbenzamide [Example 1002]
IC50 [4]: > 500 nM

Compound: N-{3-[2-(1-{[(4-chlorophenyl)sulfonyl]-2,5-difluoroanilino}ethyl)phenoxy]propyl}-3-methoxy-N-methylbenzamide [Example 786]
IC50 [5]: 100 to 500 nM

Compound: 2-((1R)-1-{[(4-chlorophenyl)sulfonyl]-2,5-difluoroanilino}ethyl)benzyl 2-(4-chlorophenyl)ethylcarbamate [Example 731]
IC50 [5]: 100 to 500 nM

Compound: C[C@H](c1ccccc1CCC(=O)NC1CCCCC1)N(c1cc(F)ccc1F)S(=O)(=O)c1ccc(Cl)cc1 [Example 401, 3-[2-((1R)-1-{[(4-chlorophenyl)sulfonyl]-2,5-difluoroanilino}ethyl)phenyl]-N-cyclohexylpropanamide]
IC50 (Homo sapiens, 16 h, transfected H4 cells stably expressing APP, approximately 16 hours incubation, Table B): 50 to 100 nM

Compound: 1-{3-[2-({[(4-chlorophenyl)sulfonyl]-2,5-difluoroanilino}methyl)phenoxy]propyl}-1-methylpiperidinium iodide [Example 1037]
IC50 [4]: > 500 nM

Compound: CC(C)C[C@@H](NC(=O)CCC[C@@H](C)N(c1cc(Cl)ccc1F)S(=O)(=O)c1ccc(Cl)cc1)C(=O)O [Example 1271, (R)-4-Chloro-N-(5-chloro-2-fluorophenyl)-N-[5-[N-(R)-[1-(carboxy)-3-methylbutyl]amino]-1-methyl-5-oxopentyl]benzenesulfonamide]
IC50 [2]: 50 to 100 nM

Compound: C[C@H](COC(=O)NCCN1CCCCC1)N(c1cc(Cl)ccc1Cl)S(=O)(=O)c1ccc(Cl)cc1 [Example 1242]
IC50 [2]: ≤ 25 nM

Compound: O=S(=O)(c1ccc(Cl)cc1)N(Cc1ccccc1OCCC[S+]([O-])c1ccccc1)c1cc(F)ccc1F (stereo not shown) [Example 702, 4-chloro-N-(2,5-difluorophenyl)-N-{2-[3-(phenylsulfinyl)propoxy]benzyl}benzenesulfonamide]
IC50 [1]: 100 to 500 nM

Compound: O=S(=O)(c1ccc(Cl)cc1)N(Cc1ccccc1OCCCn1ccnc1)c1ccccc1 [Example 882, 4-chloro-N-{2-[3-(1H-imidazol-1-yl)propoxy]benzyl}-N-phenylbenzenesulfonamide hydrochloride]
IC50 [3]: > 500 nM

Compound: COC(=O)CCSCCc1cc(F)ccc1[C@@H](C)N(c1cc(F)ccc1F)S(=O)(=O)c1ccc(Cl)cc1 [Example 473]
IC50 [8]: 50 to 100 nM

Compound: N-{3-[2-(1-{[(4-chlorophenyl)sulfonyl]-2,5-difluoroanilino}ethyl)phenoxy]propyl}-3-methoxybenzamide [Example 690]
IC50 [5]: 100 to 500 nM

Compound: CC(C)C[S+]([O-])CCC[C@@H](C)N(c1cc(Cl)ccc1Cl)S(=O)(=O)c1ccc(Cl)cc1 (stereo partly shown) [Example 1182]
IC50 [2]: ≤ 25 nM

Compound: CC(c1ccccc1OCCCN(C)S(=O)(=O)c1cccc(C(F)(F)F)c1)N(c1cc(F)ccc1F)S(=O)(=O)c1ccc(Cl)cc1 (stereo not shown) [Example 788, N-{3-[2-(1-{[(4-chlorophenyl)sulfonyl]-2,5-difluoroanilino}ethyl)phenoxy]propyl}-N-methyl-3-(trifluoromethyl)benzenesulfonamide]
IC50 [5]: 100 to 500 nM

Compound: CN(CCCOc1ccccc1CN(c1cc(F)ccc1F)S(=O)(=O)c1ccc(Cl)cc1)C(=O)CCCCC1SCC2NC(=O)NC21 (stereo not shown) [Example 666, N-{3-[2-({[(4-chlorophenyl)sulfonyl]-2,5-difluoroanilino}methyl)phenoxy]propyl}-N-methyl-5-(2-oxohexahydro-1H-thieno[3,4-d]imidazol-4-yl)pentamide]
IC50 [5]: 100 to 500 nM

Compound: N-{2-[2-(1-{[(4-chlorophenyl)sulfonyl]-2,5-difluoroanilino}ethyl)phenoxy]ethyl}-3-cyclopentyl-N-methylpropanamide [Example 653]
IC50 [5]: 100 to 500 nM

Compound: C[C@@H]1CCC[C@H](C)N1CCCOc1ccccc1CN(c1ccccc1)S(=O)(=O)c1ccc(Cl)cc1 [Example 306, 4-Chloro-N-(2-{3-[(2R,6S)-2,6-dimethylpiperidinyl]propoxy}benzyl)-N-phenylbenzenesulfonamide Hydrochloride]
IC50 [8]: 50 to 100 nM
